{"source": "paper PMC7646182", "about": "“Design and biological evaluation of novel BF-30 analogs for the treatment of malignant melanoma” (Journal of Cancer, 2020)", "system": "B16F10 melanoma", "experiment": "Chronic study in B16F10-bearing mouse model", "type": "in vivo", "settings": "B16F10-bearing C57BL/6J mice, 4-week treatment; LBF-14 0.3 and 0.9 mg/kg, cisplatinum 0.1 mg/kg, n=10", "method": "The B16F10 cells (0.1 ml, 5×10^6 cells, cell viability >99%) were subcutaneously transplanted into the C57BL/6J mice. In the next 15 days, the length (L), width (W) and height (H) of tumours were measured with a caliper to calculate tumour volume using the formula: V = π/6×L×W×H. When the tumours grew to 150-350 mm^3, the melanoma model mice were randomly divided into five groups (n=10) and received saline, native BF-30 at 0.9 mg/kg, LBF-14 at […] doses of 0.3 and 0.9 mg/kg, and cisplatinum at the dose of 0.1 mg/kg, respectively. All the samples including the saline and different doses of LBF-14 were administered twice weekly by intra-tumour injection (50 μl) for 4 successive weeks. All melanoma model mice were weighted and sacrificed at the end of the experimental period (day 29). The anti-tumour efficacies of LBF-14 at both two doses were presented as inhibitory rates (%) which were calculated as [(A-B)/A]×100% (average tumour weight of (A) saline treated group and (B) LBF-14 treated groups, respectively). In addition, the tumours from the B16F10-bearing mice were separated and then performed H&E staining according to the standard operating procedures."}
{"compound": "N.N.[Cl][Pt][Cl]", "note": "[cisplatinum]", "values": [{"measurement": "effect on body weight of model mice", "value": "significant decrease in body weight"}]}
